Common to all, as to assay: NCI-60 cell line screen, 48 h
For experiment [1], the system named is CCRF-CEM leukemia.
The subject of experiment [2] is HS 578T breast.
Experiment [3] deals with IGROV1 ovarian.
Experiment [4] relates to MDA-MB-231 breast.
The subject of experiment [5] is NCI/ADR-RES ovarian.
In experiment [6] the test system is OVCAR-8 ovarian.
For experiment [7], the system named is SN12C renal.
The subject of experiment [8] is SR leukemia.
The test system of experiment [9] is UACC-257 melanoma.
Experiment [10] relates to UO-31 renal.

Values joined by “and” are separate entries in the source; they are usually repeats but may differ in a detail not shown here. Identical values can stand only once.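 Exposure lasted 48 hours, with cells grown in 96-well plates and compounds tested at five concentrations. GI50 = concentration required for 50% inhibition of growth. The concentration for full growth arrest is given as TGI.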

In the case of `Cl.Fc1c[c-]c(-c2ccccn2)c(F)c1.[Pt].c1ccc(P(c2ccccc2)C([PH+](c2ccccc2)c2ccccc2)[PH+](c2ccccc2)c2ccccc2)cc1`, the GI50 in experiment [1] was 3.26 µM; in experiment [2], 2.92 µM; in experiment [3], 3.16 µM; in experiment [4], 2.28 µM; in [5] it was 34.9 µM; in experiment [6], 2.83 µM. Further, the GI50 is 2.91 µM in [7], 2.61 µM in [8], 2.75 µM in experiment [9] and 2.27 µM in experiment [10]. Further, the TGI in experiment [1] was greater than 100 µM; in experiment [2], 39 µM; in [3] it was greater than 100 µM; in experiment [4] it was 7.06 µM; in experiment [5], greater than 100 µM; in [6] it was 38.5 µM. For the same compound, the TGI in [7] is 15.4 µM; in [8], greater than 100 µM; in [9], 8.09 µM; in experiment [10] it was 7.65 µM.
Turning to `Nc1nc2c(s1)CCc1c-2c(Br)n(Cc2ccccc2)c1Br`, the GI50 is 0.534 µM in experiment [1]; 25.7 µM in experiment [2]; 14.1 µM in experiment [3]; 14.1 µM in [4]; 23.7 µM in [5]; 6.48 µM in [6]. Further, the GI50 in experiment [7] was 13.5 µM; in experiment [8], 3.41 µM; in experiment [9] it was 12.1 µM; in [10], 1.8 µM. Besides, the TGI was found to be 11.9 µM in experiment [1]; 93.8 µM in experiment [2]; 37.5 µM in [3]; 48.7 µM in experiment [4]; 87.7 µM in [5]; 64.2 µM in experiment [6]. The TGI was 31.2 µM in experiment [7], greater than 100 µM in [8], 25.6 µM in experiment [9] and 4.41 µM in [10].
On to `CC(C)(C)C(=O)OCOP(=O)(OCOC(=O)C(C)(C)C)C1CC(O)N(O)C1=O` (stereo not given), for which the GI50 is 0.777 µM in [1]; 2.59 µM in [2]; 2.83 µM in [3]; 3.65 µM in [4]; 4.39 µM in experiment [5]; 4.73 µM in experiment [6]. Moreover, the GI50 is 2.87 µM in experiment [7], 4.2 µM in experiment [8], greater than 100 µM in experiment [9] and 2.92 µM in experiment [10]. The TGI was 14.3 µM in [1]; 7.85 µM in experiment [2]; 9.72 µM in experiment [3]; 40.9 µM in experiment [4]; greater than 100 µM in experiment [5]; greater than 100 µM in [6]. In addition, the TGI is 9.56 µM in experiment [7], 75.2 µM in experiment [8], greater than 100 µM in experiment [9] and 37.6 µM in experiment [10].
On to `CC(=O)c1cc(C(=O)c2ccc3c(c2)Sc2ccccc2N3)c2c(C)cc(C)cn12`, for which the GI50 in experiment [1] was 0.277 µM; in [2] it was 0.343 µM; in experiment [3] it was 0.596 µM; in experiment [4] it was 0.458 µM; in [5] it was 0.264 µM; in [6], 0.405 µM. Further, the GI50 was 0.724 µM in experiment [7], 0.302 µM in experiment [8], 2.04 µM in experiment [9] and 0.635 µM in [10]. The TGI in [1] is greater than 100 µM; in [2], greater than 36 µM; in experiment [3], greater than 100 µM; in [4] it was 8.95 µM; in [5] it was 8.16 µM; in experiment [6], greater than 100 µM. In addition, the TGI in experiment [7], in experiment [8], in experiment [9] and in experiment [10] was greater than 100 µM each time.
Regarding `O=C1Nc2c(C(F)(F)F)cccc2[C@@]1(c1ccc(O)cc1)c1ccc(OC(F)(F)F)cc1`, the GI50 in [1] was 14.5 µM; in experiment [2], less than 0.01 µM; in experiment [3] it was less than 0.01 µM; in experiment [4], 0.222 µM; in [5], less than 0.01 µM; in experiment [6] it was less than 0.01 µM. The GI50 in experiment [7] was less than 0.01 µM; in experiment [8] it was 10.5 µM; in experiment [9], 0.938 µM; in experiment [10] it was 0.0143 µM. For the same compound, the TGI was 45.9 µM in experiment [1]; less than 0.01 µM in experiment [2]; 0.0417 µM in experiment [3]; 18.2 µM in experiment [4]; less than 0.0105 µM in experiment [5]; 0.0102 µM in experiment [6]. Moreover, the TGI in experiment [7] was less than 0.011 µM; in experiment [8] it was 29.5 µM; in experiment [9], 20.1 µM; in experiment [10], 0.028 µM.
In the case of `COc1ccc2cc(-c3cc4c(oc3=O)-c3ccccc3OC4O)c(=O)oc2c1` (stereo not given), the GI50 in experiment [1] is 19.7 µM; in experiment [2], 20.8 µM; in experiment [3], 16.9 µM; in experiment [4], 17.9 µM; in experiment [5] it was 17.7 µM; in experiment [6] it was 17.5 µM. Further, the GI50 is 17.2 µM in experiment [7], 79.7 µM in [8], 16.2 µM in experiment [9] and 17.5 µM in experiment [10]. The TGI was found to be 64.7 µM in [1]; 45.1 µM in experiment [2]; 34 µM in experiment [3]; 36.1 µM in [4]; 31.7 µM in [5]; 35.3 µM in [6]. For the same compound, the TGI was 32.2 µM in experiment [7], greater than 100 µM in experiment [8], 32.3 µM in experiment [9] and 33.4 µM in experiment [10].
As for `C=CC(=O)NCc1cccc(Nc2ncc(Br)c(NCCCNC(=O)C3CCC3)n2)c1`, the GI50 in [1] was 0.707 µM and 0.454 µM; in experiment [2], 0.295 µM and 0.539 µM; in [3] it was 1.17 µM and 0.732 µM; in experiment [4], 0.567 µM and 0.463 µM; in experiment [5], 7.28 µM and 7.94 µM; in experiment [6] it was 1.99 µM and 1.72 µM. Besides, the GI50 in experiment [7] is 0.621 µM and 0.45 µM; in [8], 0.394 µM; in experiment [9], 2.57 µM and 3.46 µM; in experiment [10], 0.256 µM and 0.26 µM. Moreover, the TGI is 12.5 µM and > 25 µM in experiment [1]; 1.53 µM and 1.86 µM in [2]; 12.5 µM and 15.8 µM in experiment [3]; 11.6 µM and 1.8 µM in [4]; 12.5 µM and > 25 µM in experiment [5]; 12.5 µM and > 25 µM in experiment [6]. The TGI in experiment [7] is 12.5 µM and > 25 µM; in [8] it was 12.5 µM; in experiment [9], 12.5 µM and 20.6 µM; in experiment [10], 1.11 µM and 0.916 µM.

For the origin of these results see PubChem BioAssay (NCI).
